pIC50: −log10 of the molar value. Converted amounts (≈) assume the structure as drawn. Read-outs that look alike come from different tables or passages of the source.
Legend:
E. coli (ATCC 25922) = assay: Minimal Inhibitory Concentration (MIC) assay, E. coli; assay type: cell-based; conditions: Escherichia coli, read-out: MIC E. coli ATCC 25922
Experimental: (§1) Example 122: Minimal Inhibitory Concentration Protocol (MIC) Assay
(§2) The in vitro potency of compounds to inhibit E. coli (ATCC 25922) and K. pneumonia (ATCC 43816) growth was assessed by MIC (Minimal Inhibitory Concentration) assay. Samples were prepared from 10 mM DMSO stock solutions. After serial 2-fold dilution in DMSO in a master plate (Greiner, Cat No: 651201), 180 μL sterile distilled water was added to 20 μL each aliquot of the samples. Then 10 μL diluted compounds were transferred into a new assay plate (Costar, 3599).
(§3) The growth medium Cation-Adjusted Mueller Hinton Broth (CAMHB) was prepared by adding the 20 mg per liter CaCl2) and 20 mg per liter MgCl2 into the MHB medium (Jianglai Company, sterilized).
(§4) Vials of each of the test microorganisms were maintained frozen in the vapor phase of a liquid nitrogen freezer. The bacteria E. coli ATCC 25922 (KWIKSTIK, 0335K) and K. pneumonia ATCC 43816 were taken out from liquid nitrogen freezer, then thawed in room temperature, and diluted in the CAMHB medium to achieve a final inoculum of 5×10^5 CFU/mL. 90 μL CAMHB with bacteria was dispensed to the assay plate and pipetted 5 times.
(§5) Then the assay plates were incubated for 20 hours at 35° C. in ambient air. Following incubation, the MIC (μg/mL), the lowest concentration of drug that inhibits visible growth of the microorganism was read and recorded throw the microscope.

[1] = molecular target: Escherichia coli LpxH (UDP-2,3-diacylglucosamine hydrolase) (Escherichia coli (strain K12), UniProt P43341); assay: 50% Inhibitory Concentration (IC50) to LpxH, UMP/CMP-Glo Glycosyltransferase Assay kit; assay type: biochemical
Experimental: Example 121: 50% Inhibitory Concentration (IC50) to UDP-2,3-diacylglucosamine hydrolase (LpxH)
The inhibitory potency of molecules to UDP-2,3-diacylglucosamine hydrolase (LpxH) was determined using the UMP/CMP-Glo™ Glycosyltransferase Assay kit. LpxH hydrolyzes the pyrophosphate bond of UDP-2,3-diacylglucosamine (UDP-DAG) to yield 2,3-diacylglucosamine 1-phosphate (lipid X) and UMP. The assay kit could quantify the UMP production by convert the UMP to ATP and generate light in a luciferase reaction. The compound's effect on the LpxH activity is detected by measuring the light using a luminometer (Envision).

[2] = tested on: K. pneumonia (ATCC 43816); assay: Minimal Inhibitory Concentration (MIC) assay, K. pneumonia; assay type: cell-based; conditions: Klebsiella pneumoniae, read-out: MIC K. pneumoniae ATCC43816
Experimental: as §1, §2, §3, §4, §5

[3] = ATCC25922, E. coli ATCC 25922, CAMHB, 20 hours at 35° C.
[4] = K. pneumoniae ATCC43816, CAMHB, 20 hours at 35° C.

Escherichia coli LpxH (UDP-2,3-diacylglucosamine hydrolase), sequence (P43341 whole entry): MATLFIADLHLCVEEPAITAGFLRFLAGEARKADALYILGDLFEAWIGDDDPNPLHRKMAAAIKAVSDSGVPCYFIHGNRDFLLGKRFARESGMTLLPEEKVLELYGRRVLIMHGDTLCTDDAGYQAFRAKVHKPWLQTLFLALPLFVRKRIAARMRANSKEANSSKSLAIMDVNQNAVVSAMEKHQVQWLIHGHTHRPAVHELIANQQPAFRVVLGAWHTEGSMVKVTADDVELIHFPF

Row | Structure (SMILES) | MIC (E. coli (ATCC 25922); [3]) [µg/mL] | pIC50 [1] | MIC [2, 4] [µg/mL] | MIC (E. coli (ATCC 25922); ATCC25922, 20 h) [µg/mL] | MIC ([2]; ATCC43816, 20 h) [µg/mL]
1 | NCC1CC(=O)N(c2ccc(S(=O)(=O)N3CCN(c4cc(C(F)(F)F)cc(Cl)n4)CC3)cc2)C1 (stereo not drawn) [Example 2, 4-(Aminomethyl)-1-[4-[4-[6-chloro-4-(trifluoromethyl)-2-pyridyl]piperazin-1-yl]sulfonyl-phenyl]pyrrolidin-2-one] | 1.98 (≈ 3.82 µM) | 7.07 | 3.95 (≈ 7.63 µM) | – | –
2 | NCC1CN(c2ccc(S(=O)(=O)N3CCN(c4cc(C(F)(F)F)cc(Cl)n4)CC3)cc2)C(=O)O1 (stereo not drawn) [Example 3, 5-(Aminomethyl)-3-[4-[4-[6-chloro-4-(trifluoromethyl)-2-pyridyl]piperazin-1-yl]sulfonylphenyl]oxazolidin-2-one] | 3.96 (≈ 7.62 µM) | 6.34 | 1.98 (≈ 3.81 µM) | – | –
3 | CC(=O)NCC1CN(c2ccc(S(=O)(=O)N3CCN(c4cc(C(F)(F)F)cc(Cl)n4)CC3)cc2)C(=O)O1 (stereo not drawn) [Example 4, N-[[3-[4-[4-[6-chloro-4-(trifluoromethyl)-2-pyridyl]piperazin-1-yl]sulfonylphenyl]-2-oxo-oxazolidin-5-yl]methyl]acetamide] | 3.51 (≈ 6.25 µM) | 7.55 | 7.03 (≈ 12.5 µM) | – | –
4 | CC1(C)C(=O)N(c2ccc(S(=O)(=O)N3CCN(c4cc(C(F)(F)F)cc(Cl)n4)CC3)cc2)CC1N (stereo not drawn) [Example 5, 4-Amino-1-[4-[4-[6-chloro-4-(trifluoromethyl)-2-pyridyl]piperazin-1-yl]sulfonylphenyl]-3,3-dimethyl-pyrrolidin-2-one] | 8.08 (≈ 15.2 µM) | 6.81 | 16.1 (≈ 30.4 µM) | – | –
5 | NCC1COC(=O)N1c1ccc(S(=O)(=O)N2CCN(c3cc(C(F)(F)F)cc(Cl)n3)CC2)cc1 (stereo not drawn) [Example 6, 4-(Aminomethyl)-3-[4-[4-[6-chloro-4-(trifluoromethyl)-2-pyridyl]piperazin-1-yl]sulfonylphenyl]oxazolidin-2-one] | 1.98 (≈ 3.81 µM) | 7.35 | 1.98 (≈ 3.81 µM) | – | –
6 | N[C@H]1CN(c2ccc(S(=O)(=O)N3CCN(c4cc(C(F)(F)F)cc(Cl)n4)CC3)cc2)C1=O [Example 7, (3S)-3-amino-1-[4-[4-[6-chloro-4-(trifluoromethyl)-2-pyridyl]piperazin-1-yl]sulfonylphenyl]azetidin-2-one] | 3.78 (≈ 7.72 µM) | 7.20 | 5.66 (≈ 11.6 µM) | – | –
7 | NC1CCN(c2ccc(S(=O)(=O)N3CCN(c4cc(C(F)(F)F)cc(Cl)n4)CC3)cc2)C1=O (stereo not drawn) [Example 8, 3-Amino-1-[4-[4-[6-chloro-4-(trifluoromethyl)-2-pyridyl]piperazin-1-yl]sulfonylphenyl]pyrrolidin-2-one] | 3.86 (≈ 7.66 µM) | 6.93 | 7.72 (≈ 15.3 µM) | – | –
8 | NCCC1CN(c2ccc(S(=O)(=O)N3CCN(c4cc(C(F)(F)F)cc(Cl)n4)CC3)cc2)C(=O)O1 (stereo not drawn) [Example 9, 5-(2-Aminoethyl)-3-[4-[4-[6-chloro-4-(trifluoromethyl)-2-pyridyl]piperazin-1-yl]sulfonylphenyl]oxazolidin-2-one] | 1.78 (≈ 3.33 µM) | 7.61 | 3.57 (≈ 6.69 µM) | – | –
9 | O=C1CC2(CCCCN2)CN1c1ccc(S(=O)(=O)N2CCN(c3cc(C(F)(F)F)cc(Cl)n3)CC2)cc1 (stereo not drawn) [Example 10, 2-[4-[4-[6-Chloro-4-(trifluoromethyl)-2-pyridyl]piperazin-1-yl]sulfonylphenyl]-2,6-diazaspiro[4.5]decan-3-one] | 1.05 (≈ 1.88 µM) | 7.71 | 4.2 (≈ 7.53 µM) | – | –
10 | O=C1CC2(CCNCC2)CN1c1ccc(S(=O)(=O)N2CCN(c3cc(C(F)(F)F)cc(Cl)n3)CC2)cc1 [Example 11, 2-[4-[4-[6-Chloro-4-(trifluoromethyl)-2-pyridyl]piperazin-1-yl]sulfonylphenyl]-2,8-diazaspiro[4.5]decan-3-one] | 2.1 (≈ 3.76 µM) | 7.63 | 4.2 (≈ 7.53 µM) | – | –
11 | O=C1CC2(CNC2)CN1c1ccc(S(=O)(=O)N2CCN(c3cc(C(F)(F)F)cc(Cl)n3)CC2)cc1 [Example 12, 6-[4-[4-[6-Chloro-4-(trifluoromethyl)-2-pyridyl]piperazin-1-yl]sulfonylphenyl]-2,6-diazaspiro[3.4]octan-7-one] | 2.01 (≈ 3.79 µM) | 7.16 | 4.03 (≈ 7.6 µM) | – | –
12 | O=C1OC2(CNC2)CN1c1ccc(S(=O)(=O)N2CCN(c3cc(C(F)(F)F)cc(Cl)n3)CC2)cc1 [Example 13] | 0.83 (≈ 1.56 µM) | 6.89 | 2.49 (≈ 4.68 µM) | – | –
13 | O=C1OC2(CCNCC2)CN1c1ccc(S(=O)(=O)N2CCN(c3cc(C(F)(F)F)cc(Cl)n3)CC2)cc1 [Example 14, 3-[4-[4-[6-Chloro-4-(trifluoromethyl)-2-pyridyl]piperazin-1-yl]sulfonylphenyl]-1-oxa-3,8-diazaspiro[4.5]decan-2-one] | 1.75 (≈ 3.13 µM) | 7.02 | 3.5 (≈ 6.25 µM) | – | –
14 | O=C1O[C@H]2CNC[C@H]2N1c1ccc(S(=O)(=O)N2CCN(c3cc(C(F)(F)F)cc(Cl)n3)CC2)cc1 [Example 15, (3aR,6aS)-3-[4-[4-[6-chloro-4-(trifluoromethyl)-2-pyridyl]piperazin-1-yl]sulfonylphenyl]-4,5,6,6a-tetrahydro-3aH-pyrrolo[3,4-d]oxazol-2-one] | 1.01 (≈ 1.9 µM) | 7.02 | 2.02 (≈ 3.8 µM) | – | –
15 | O=C1O[C@H]2CCNC[C@H]2N1c1ccc(S(=O)(=O)N2CCN(c3cc(C(F)(F)F)cc(Cl)n3)CC2)cc1 [Example 16, (3aR,7aS)-3-[4-[4-[6-chloro-4-(trifluoromethyl)-2-pyridyl]piperazin-1-yl]sulfonylphenyl]-3a,4,5,6,7,7a-hexahydrooxazolo[4,5-c]pyridin-2-one] | 1.03 (≈ 1.89 µM) | 7.41 | 1.03 (≈ 1.89 µM) | – | –
16 | O=C1O[C@@H]2CNCC[C@@H]2N1c1ccc(S(=O)(=O)N2CCN(c3cc(C(F)(F)F)cc(Cl)n3)CC2)cc1 [Example 17, (3aR,7aS)-1-[4-[4-[6-chloro-4-(trifluoromethyl)-2-pyridyl]piperazin-1-yl]sulfonylphenyl]-3a,4,5,6,7,7a-hexahydrooxazolo[5,4-c]pyridin-2-one] | – | 6.32 | – | 1.82 (≈ 3.33 µM) | 3.64 (≈ 6.67 µM)
17 | O=C1O[C@@H]2CCNC[C@@H]2N1c1ccc(S(=O)(=O)N2CCN(c3cc(C(F)(F)F)cc(Cl)n3)CC2)cc1 [Example 18, (3aS,7aR)-3-[4-[4-[6-chloro-4-(trifluoromethyl)-2-pyridyl]piperazin-1-yl]sulfonylphenyl]-3a,4,5,6,7,7a-hexahydrooxazolo[4,5-c]pyridin-2-one] | 0.91 (≈ 1.67 µM) | 6.82 | 0.91 (≈ 1.67 µM) | – | –
18 | O=C1O[C@@H]2CCCNC[C@@H]2N1c1ccc(S(=O)(=O)N2CCN(c3cc(C(F)(F)F)cc(Cl)n3)CC2)cc1 [Example 19, (3aS,8aR)-3-[4-[4-[6-chloro-4-(trifluoromethyl)-2-pyridyl]piperazin-1-yl]sulfonylphenyl]-4,5,6,7,8,8a-hexahydro-3aH-oxazolo[4,5-c]azepin-2-one] | 1.05 (≈ 1.88 µM) | 7.47 | 1.05 (≈ 1.88 µM) | – | –
19 | O=C1CC2NCCC2N1c1ccc(S(=O)(=O)N2CCN(c3cc(C(F)(F)F)cc(Cl)n3)CC2)cc1 (stereo not drawn) [Example 20, 4-[4-[4-[6-Chloro-4-(trifluoromethyl)-2-pyridyl]piperazin-1-yl]sulfonylphenyl]-1,2,3,3a,6,6a-hexahydropyrrolo[3,2-b]pyrrol-5-one] | 1.77 (≈ 3.34 µM) | 7.21 | 3.54 (≈ 6.68 µM) | – | –
20 | O=C1OC2C(O)C(CO)OC2N1c1ccc(S(=O)(=O)N2CCN(c3cc(C(F)(F)F)cc(Cl)n3)CC2)cc1 (stereo not drawn) [Example 21, 3-[4-[4-[6-Chloro-4-(trifluoromethyl)-2-pyridyl]piperazin-1-yl]sulfonylphenyl]-6-hydroxy-5-(hydroxymethyl)-3a,5,6,6a-tetrahydrofuro[2,3-d]oxazol-2-one] | 0.91 (≈ 1.57 µM) | 7.98 | 1.81 (≈ 3.13 µM) | – | –
21 | CO[C@@H]1OC(C2OC(=O)N(c3ccc(S(=O)(=O)N4CCN(c5cc(C(F)(F)F)cc(Cl)n5)CC4)cc3)C2C)[C@@H](O)[C@H]1O (stereo partly drawn) [Example 22, 3-[4-[4-[6-Chloro-4-(trifluoromethyl)-2-pyridyl]piperazin-1-yl]sulfonylphenyl]-5-[(3S,4R,5R)-3,4-dihydroxy-5-methoxy-tetrahydrofuran-2-yl]-4-methyl-oxazolidin-2-one] | 1.99 (≈ 3.12 µM) | > 8.50 | 1.99 (≈ 3.12 µM) | – | –

From US20250011300A1, “PIPERAZINYLSULFONYLARYL COMPOUNDS FOR TREATMENT OF BACTERIAL INFECTIONS” (Hoffmann-La Roche Inc., priority 2021, published 2025)
